One assay is filed under the species Homo sapiens. Nature of the assay: Selectivity ratio of Ki for human CB1 to Ki for human CB2.
The next assay has as its target Cannabinoid receptor 1 (Homo sapiens, UniProt P21554). Nature of the assay: Displacement of [3H]CP 55940 from human CB1 receptor in cell free system.
For the next assay, the target named is Cannabinoid receptor 2 (Homo sapiens, UniProt P34972). Nature of the assay: Displacement of [3H]CP 55940 from human CB2 receptor in cell free system. The conditions noted are these: read-out: Ki. A general note: In a radioligand displacement assay an active substance lowers the binding of a labelled ligand.

The structures appear in SMILES notation. Some results are limits rather than exact numbers.

Chain of Cannabinoid receptor 2 (P34972 whole entry): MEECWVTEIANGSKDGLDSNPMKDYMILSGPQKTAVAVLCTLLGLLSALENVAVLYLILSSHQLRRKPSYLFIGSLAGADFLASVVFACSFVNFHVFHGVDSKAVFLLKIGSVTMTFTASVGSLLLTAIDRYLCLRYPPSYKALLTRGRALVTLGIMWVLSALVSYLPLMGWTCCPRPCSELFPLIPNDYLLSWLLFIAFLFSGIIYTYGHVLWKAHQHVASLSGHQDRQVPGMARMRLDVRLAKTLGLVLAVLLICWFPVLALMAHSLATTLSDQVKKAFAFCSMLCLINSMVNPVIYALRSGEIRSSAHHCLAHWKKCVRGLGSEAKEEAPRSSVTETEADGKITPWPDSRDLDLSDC
Chain of Cannabinoid receptor 1 (P21554 whole entry): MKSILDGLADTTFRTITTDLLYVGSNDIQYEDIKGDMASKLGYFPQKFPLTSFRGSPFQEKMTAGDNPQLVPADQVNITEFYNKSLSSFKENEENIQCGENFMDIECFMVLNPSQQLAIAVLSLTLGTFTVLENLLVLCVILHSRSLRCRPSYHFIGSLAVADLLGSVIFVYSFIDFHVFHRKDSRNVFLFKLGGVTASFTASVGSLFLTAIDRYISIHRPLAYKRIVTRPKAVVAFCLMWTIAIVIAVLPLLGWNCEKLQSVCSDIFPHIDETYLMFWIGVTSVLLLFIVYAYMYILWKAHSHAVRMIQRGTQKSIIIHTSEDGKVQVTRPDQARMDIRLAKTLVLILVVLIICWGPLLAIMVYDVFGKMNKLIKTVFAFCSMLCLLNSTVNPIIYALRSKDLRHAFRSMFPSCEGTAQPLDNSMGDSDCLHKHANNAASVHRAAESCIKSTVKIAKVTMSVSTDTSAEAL

As to `C=C1CC[C@@H]2[C@@H](C1)c1c(OC)cc(C(C)(C)CCCCCC)cc1OC2(C)C`, the log(ratioKi) in the assay listed under Homo sapiens came out at 2.26. The Ki (usually a dissociation constant, usually derived from enzyme kinetics or from competition with a known ligand) was determined as 4890 nM on Cannabinoid receptor 1 and 11.8 nM at Cannabinoid receptor 2.

Turning to `CCCCCn1c(C)c(C(=O)c2ccc(CCC)c3ccccc23)c2ccccc21`, in the assay filed under Homo sapiens, the log(ratioKi) came out at 0.32. Moreover, the Ki at Cannabinoid receptor 1 came out at 1.3 nM; at Cannabinoid receptor 2, 0.6 nM.

As to `Cc1c(C(C)(C)C)s/c(=N\C(=O)c2ccc(Br)cc2)n1CC1CC1`, in the assay filed under Homo sapiens, the log(ratioKi) was 1.6. Besides, the values for the inhibition constant Ki on Cannabinoid receptor 1 and at Cannabinoid receptor 2 were 53 nM and 1.2 nM, respectively.

As to `CCC(C)(C)C(=O)Cc1cc(C)c(C)c(S(=O)(=O)N2CCCCCC2)c1`, the log(ratioKi) in the assay filed under Homo sapiens was determined as 2.3. Moreover, the inhibitory constant (Ki) is 1800 nM on Cannabinoid receptor 1 and 9 nM on Cannabinoid receptor 2.

As to `CC1=CC[C@@H]2[C@@H](C1)c1c(O)cc(C(C)(C)c3cccs3)cc1OC2(C)C`, the log(ratioKi) in the assay listed under Homo sapiens came out at 1.13. The results for the Ki at Cannabinoid receptor 1 and on Cannabinoid receptor 2 were 12.3 nM and 0.91 nM, respectively.

As to `CCCCCCC1(c2cc(O)c3c(c2)OC(C)(C)[C@@H]2CC=C(C)C[C@@H]32)CC1(Cl)Cl` (some centres not stated), the log(ratioKi) in the assay listed under Homo sapiens was determined as 0.19. The inhibitory constant (Ki) at Cannabinoid receptor 1 was found to be 1.8 nM; on Cannabinoid receptor 2 it was 1.3 nM.

For `CCCCCn1cc(C(=O)NC23CC4CC(CC(C4)C2)C3)c(=O)c2cccc(C)c21`, the log(ratioKi) in the assay listed under Homo sapiens is above 3.3. Moreover, the values for the Ki on Cannabinoid receptor 1 and on Cannabinoid receptor 2 were above 10000 nM and 4.9 nM, respectively.

For `CC1(C)C(C(=O)c2cn(CC3CCOCC3)c3cc(O)ccc23)C1(C)C`, the log(ratioKi) in the assay listed under Homo sapiens was determined as 2.55. For the same compound, the Ki on Cannabinoid receptor 1 was found to be 2950 nM; at Cannabinoid receptor 2, 8.3 nM.

In the case of `CCC(C)(C)C(=O)Cc1cc(C)c(C)c(S(=O)(=O)N2CCCCC2)c1`, the log(ratioKi) in the assay filed under Homo sapiens turned out to be 2.38. Besides, the Ki at Cannabinoid receptor 1 was 650 nM; at Cannabinoid receptor 2, 2.7 nM.

Take `CCCCCCn1cc(C(=O)NC2CCCCC2)c(=O)c2ccc(C)nc21`: the log(ratioKi) in the assay filed under Homo sapiens is 1.07. Besides, the results for the inhibition constant Ki on Cannabinoid receptor 1 and at Cannabinoid receptor 2 were 95 nM and 8 nM, respectively.

Regarding `CCCCCCC1(c2cc(O)c3c(c2)OC(C)(C)[C@@H]2CC=C(C)C[C@@H]32)OCCO1`, the log(ratioKi) in the assay filed under Homo sapiens was found to be 0.43. Also, the Ki turned out to be 0.5 nM at Cannabinoid receptor 1 and 0.2 nM at Cannabinoid receptor 2.

For the compound `Cc1c(C(C)(C)C)s/c(=N\C(=O)c2ccc(OC(F)(F)F)cc2)n1CC1CC1`, the log(ratioKi) in the assay filed under Homo sapiens turned out to be 2.28. The inhibition constant Ki came to 1100 nM at Cannabinoid receptor 1 and 5.7 nM on Cannabinoid receptor 2.

Consider `CCC1CCC(C(=O)c2cn(CCN3CCOCC3)c3ccccc23)CC1` (configuration not stated), for which the log(ratioKi) in the assay listed under Homo sapiens was found to be 1.58. Besides, the inhibition constant Ki on Cannabinoid receptor 1 worked out at 616 nM; on Cannabinoid receptor 2, 16 nM.

`CC1(C)C(C(=O)c2cn(CC3CCOCC3)c3c(COc4ccccc4)cccc23)C1(C)C`: the log(ratioKi) in the assay filed under Homo sapiens came to 0.98. The Ki on Cannabinoid receptor 1 turned out to be 28 nM; on Cannabinoid receptor 2, 3 nM.

`CC1(C)C(C(=O)c2cn(CC3CCOCC3)c3ccc(N)cc23)C1(C)C`: the log(ratioKi) in the assay filed under Homo sapiens worked out at 2.05. Moreover, the Ki was determined as 1000 nM at Cannabinoid receptor 1 and 9 nM on Cannabinoid receptor 2.

`Cc1nc(C(=O)Nc2ccccc2C(F)(F)F)c(C)n1-c1ccccc1`: the log(ratioKi) in the assay listed under Homo sapiens came to 2.6. The values for the Ki on Cannabinoid receptor 1 and on Cannabinoid receptor 2 were 1420 nM and 3.5 nM, respectively.

With `Cc1ccc(C(=O)NC2C(C)(C)[C@@H]3CC[C@]2(C)C3)cc1S(=O)(=O)N1CCOCC1` (some centres not stated), in the assay filed under Homo sapiens, the log(ratioKi) is 1.5. In addition, the inhibition constant (Ki) came out at 130 nM on Cannabinoid receptor 1 and 3.9 nM at Cannabinoid receptor 2.

Consider `CCCCCCC(C)(C)c1cc(OC)c2c(c1)OC(C)(C)[C@@H]1CC=C(C)C[C@@H]21`, for which the log(ratioKi) in the assay filed under Homo sapiens was found to be 2.21. For the same compound, the Ki was determined as 1040 nM on Cannabinoid receptor 1 and 6.4 nM at Cannabinoid receptor 2.

For the compound `CCCCCCC1(c2cc(O)c3c(c2)OC(C)(C)[C@@H]2CC=C(C)C[C@@H]32)CC1`, the log(ratioKi) in the assay listed under Homo sapiens was found to be 0.07. For the same compound, the Ki on Cannabinoid receptor 1 was determined as 1 nM; at Cannabinoid receptor 2 it was 0.9 nM.
